Test results taken from the supplement of paper PMC10307832.

Tests used:
Assay in all cases: relative viability (nuclei count vs DMSO), 5 days (fraction); higher = more cells survive
[1] = compound: O=S(=O)(c1ccccc1)N(CC(F)(F)F)c1ccc(C(O)(C(F)(F)F)C(F)(F)F)cc1 + CC1(C)CCC(c2ccc(Cl)cc2)=C(CN2CCN(c3ccc(C(=O)NS(=O)(=O)c4ccc(N[C@H](CCN5CCOCC5)CSc5ccccc5)c(S(=O)(=O)C(F)(F)F)c4)cc3)CC2)C1 [Navitoclax] (partner 0.5 µM)
Summary of the method: (§1)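 Each reported value is a median over duplicate plates. It expresses relative viability: treated-well nuclei count divided by vehicle-well nuclei count. Lung cancer cell lines in 1536-well plates were dosed by pin tool a day after seeding, alone with one drug or with a fixed anchor-drug dose plus five library-drug doses (not always all listed) in √10 steps, and nuclei were counted after 5 days.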

[2] = compound: C1=CC2=C(C=CC(=C2)C=C3C(=O)NC(=NCC4=CC=CS4)S3)N=C1 [RO-3306] + C[C@@H](Oc1cc(-c2cnn(C3CCNCC3)c2)cnc1N)c1c(Cl)ccc(F)c1Cl [Crizotinib] (partner 1 µM)
Summary of the method: as §1

[3] = compound: C1=CC2=C(C=CC(=C2)C=C3C(=O)NC(=NCC4=CC=CS4)S3)N=C1 [RO-3306] + Cc1nc(NC(=O)N2CCC[C@H]2C(N)=O)sc1-c1ccnc(C(C)(C)C(F)(F)F)c1 [Alpelisib] (partner 2 µM)
Summary of the method: as §1

[4] = compound: C1=CC2=C(C=CC(=C2)C=C3C(=O)NC(=NCC4=CC=CS4)S3)N=C1 [RO-3306] + O=C(CCCCCCC(=O)Nc1ccccc1)NO [Vorinostat] (partner 1 µM)
Summary of the method: as §1

Row | Cell Line | relative viability ([1]; first compound 0.8 µM) | relative viability ([1]; first compound 2.53 µM) | relative viability ([1]; first compound 8 µM) | relative viability ([2]; first compound 0.01 µM) | relative viability ([2]; first compound 0.03162 µM) | relative viability ([2]; first compound 0.1 µM) | relative viability ([2]; first compound 0.3162 µM) | relative viability ([2]; first compound 1 µM) | relative viability ([3]; first compound 0.01 µM) | relative viability ([3]; first compound 0.03162 µM) | relative viability ([3]; first compound 0.1 µM) | relative viability ([3]; first compound 0.3162 µM) | relative viability ([3]; first compound 1 µM) | relative viability ([4]; first compound 0.01 µM) | relative viability ([4]; first compound 0.03162 µM) | relative viability ([4]; first compound 0.1 µM) | relative viability ([4]; first compound 0.3162 µM) | relative viability ([4]; first compound 1 µM)
1 | HCC-366 | 1.19 | 1.03 | 1.03 | 0.566 | 0.611 | 0.486 | 0.603 | 0.522 | 0.377 | 0.347 | 0.389 | 0.503 | 0.34 | 0.454 | 0.279 | 0.25 | 0.378 | 0.308
2 | HCC-827 | 1.02 | 0.999 | 0.949 | 0.95 | 0.866 | 0.943 | 0.903 | 0.972 | 1.04 | 1.05 | 0.921 | 0.946 | 1.06 | 0.946 | 0.7 | 0.881 | 0.789 | 0.859
3 | HOP-62 | 1.19 | 0.999 | 1.09 | 1.2 | 1.09 | 0.973 | 1.05 | 0.891 | 1.02 | 0.992 | 0.933 | 1.04 | 0.986 | 0.615 | 0.44 | 0.486 | 0.611 | 0.638
4 | IA-LM | 0.765 | 0.696 | 0.899 | 0.905 | – | 0.923 | 1.11 | 0.546 | 0.895 | 0.56 | 0.725 | 0.708 | 0.948 | 1.09 | 0.519 | 0.973 | 0.947 | 0.749
5 | LC-2-ad | 0.531 | 0.544 | 0.518 | 0.404 | 0.416 | 0.397 | 0.425 | 0.368 | 1.07 | 0.832 | 0.846 | 0.887 | 0.812 | 0.773 | 0.635 | 0.78 | 0.695 | 0.626
6 | LCLC-97TM1 | 0.535 | 0.368 | 0.344 | – | 0.379 | 0.313 | 0.338 | 0.31 | – | 0.243 | 0.243 | 0.27 | 0.179 | 0.804 | 0.546 | 0.694 | 0.789 | 1.1
7 | LCLC-103H | – | – | – | 1.1 | 1.01 | 1.01 | 1.05 | 0.951 | 0.919 | 0.976 | 1.03 | 0.962 | 0.948 | 0.903 | 0.663 | 0.796 | 0.812 | 0.766
8 | LK-2 | 0.912 | 0.778 | 0.941 | 0.232 | 0.239 | 0.216 | 0.201 | 0.234 | 1.27 | 0.897 | 1.02 | 1.31 | 1.03 | 0.293 | 0.248 | 0.324 | 0.275 | 0.295
9 | LOU-NH91 | 0.73 | 0.666 | 0.717 | 0.938 | 0.728 | 0.739 | 0.706 | 0.685 | 0.7 | 0.705 | 0.764 | 0.708 | 0.671 | 0.857 | 0.828 | 0.854 | 0.871 | 0.866
10 | NCI-H358 | – | – | – | 0.612 | 0.618 | 0.439 | 0.446 | 0.375 | 0.868 | 0.711 | 0.759 | 0.809 | 0.556 | 0.821 | 0.603 | 0.596 | 0.638 | 0.524
11 | NCI-H522 | – | – | – | – | – | – | – | – | – | – | – | – | – | 0.93 | 0.792 | 0.98 | 0.959 | 0.801
12 | NCI-H650 | – | – | – | 0.56 | 0.648 | 0.694 | 0.691 | 0.703 | 0.872 | 0.981 | 1.03 | 1.1 | 1.05 | 0.406 | 0.376 | 0.41 | 0.428 | 0.415
13 | NCI-H661 | – | – | – | 1.03 | 1.22 | 1.06 | 0.773 | 1.07 | 0.736 | 0.735 | 0.686 | 0.745 | 0.688 | 0.875 | 0.727 | 0.801 | 0.773 | 0.807
14 | NCI-H1299 | 1.06 | 1 | 0.983 | 1.02 | 0.943 | 0.998 | 0.988 | 0.991 | 1.07 | 0.808 | 1.05 | 1.07 | 1.12 | – | – | – | – | –
15 | NCI-H1395 | 1.01 | 1.06 | 1.31 | – | – | – | – | – | 1.12 | 1.22 | 1.1 | 1.03 | 1.02 | 0.738 | 0.649 | 0.579 | 0.689 | 0.629
16 | NCI-H1563 | – | – | – | 0.866 | 0.849 | 0.894 | 0.873 | 0.918 | 0.992 | 0.906 | 0.823 | 1 | 0.898 | – | – | – | – | –
17 | NCI-H1648 | – | – | – | – | – | – | – | – | – | – | – | – | – | 0.348 | – | 0.291 | 0.408 | 0.351
18 | NCI-H1650 | 1.39 | 1.07 | 1.06 | 1.02 | 0.921 | 0.973 | 1.02 | 0.732 | – | – | – | – | – | 0.648 | 0.545 | 0.472 | 0.558 | 0.613
19 | NCI-H1703 | 0.926 | 0.634 | 0.7 | 0.951 | 0.418 | 0.719 | 0.91 | 0.568 | 0.467 | 0.324 | 0.342 | 0.262 | 0.307 | – | – | – | – | –
20 | NCI-H1792 | 0.798 | 0.559 | 0.474 | 1.25 | – | 0.989 | 0.985 | 0.529 | 0.803 | – | 0.668 | 0.757 | 0.457 | – | – | – | – | –
21 | NCI-H1793 | 0.471 | 0.261 | 0.301 | – | – | – | – | – | 0.686 | 0.577 | 0.739 | 0.59 | 0.565 | 0.985 | – | 0.58 | 0.701 | 0.721
22 | NCI-H2342 | – | – | – | – | – | – | – | – | – | – | – | – | – | 0.691 | 0.687 | 0.735 | 0.751 | 0.76
23 | SW 900 | – | – | – | – | – | – | – | – | – | – | – | – | – | 0.574 | 0.272 | 0.462 | 0.535 | 0.34
